Experimental data published in US20210323929A1, “Purified Detomidine, Process of Preparing and Methods of Use” (Clexio Biosciences Ltd., priority 2018, published 2021).
Read-outs that look alike come from different tables or passages of the source.

Assays:
Assay type in all cases: physicochemical
[1] = Hydration study by DVS analysis (hydration-dehydration cycles versus relative humidity)
Protocol: Melting points (m.p.) of the intermediate detomidine free base and hydrochloride of Sample 5 measured in open capillary corresponded with the published literature and the DSC data and are presented in Table 5. In order to evaluate effect of humidity on different forms of detomidine, a hydration study was performed. Samples of detomidine free base and hydrochloride salt were subjected to DVS analysis. These observations are in accordance with the DVS results shown in FIGS. 5 and 6, for detomidine free base and detomidine HCl, respectively.
During the dehydration cycle, the monohydrate began to lose water at RH˜10% and converted into the anhydrate at RH=0%.
At the same time, the anhydrous form is not stable in atmospheric air and absorbs water at RH=30-50%.

[2] = Re-slurry in water: conversion of the solid form without complete dissolution; details: contact with water for 24 hrs, re-slurry at 24° C.
[3] = Solid form stability of the vacuum dried anhydrate, hermetically closed or exposed to atmospheric air
Protocol: The same monohydrate dried at elevated temperature (30-40 mbar 90° C.) converted completely into the anhydrous form.

[4] = Solubility in water (observation on the solid forms)

Cc1cccc(Cc2c[nH]cn2)c1C [monohydrate]
absorption of additional water on increase of humidity ([1]; RH 70% to RH>90%): did not lead to absorption of additional water
RH at which the monohydrate began to lose water ([1]; dehydration cycle): ~10%
RH at which the monohydrate converted into the anhydrate ([1]; dehydration cycle): 0%

Cc1cccc(Cc2c[nH]cn2)c1C [Sample 2]
water level after absorption, cKF ([1]; anhydrous detomidine HCl after hydration): 7.7%

Cc1cccc(Cc2c[nH]cn2)c1C [anhydrous form]
form conversion on contact with water [2]: completely converted
stability in atmospheric air ([1]; atmospheric air): not stable
RH at which the anhydrate absorbs water / transforms completely into the monohydrate ([1]; hydration cycle): 30-50%
RH at which the anhydrate did not absorb water ([1]; hydration cycle): < 30%
water uptake and form conversion after exposure to atmospheric air ([3]; after exposure to atmospheric air): absorbed water and converted to a mixture of anhydrate and monohydrate
water uptake and form conversion, hermetically closed ([3]; vacuum dried, hermetically closed): did not absorb water from the atmosphere and did not convert into the monohydrate

Cc1cccc(Cc2c[nH]cn2)c1C [detomidine free base, 4-[(2,3-dimethylphenyl)methyl]-1H-imidazole]
hygroscopicity ([1]; DVS, 24.4° C. (FIG. 5)): non-hygroscopic
water absorbed ([1]; at relative humidity (RH)>50%): more than 1%
solubility in water [4]: insoluble in water

Cc1cccc(Cc2c[nH]cn2)c1C.Cl [detomidine hydrochloride]
reproducibility of anhydrate-monohydrate interconversion ([1]; four cycles of hydration-dehydration): good reproducibility
solubility in water ([4]; water, hydrochloride formed with aqueous HCl): soluble
